The target in one series is Insulin receptor (Homo sapiens, UniProt P06213). In words: Inhibition of insulin receptor.
A short description of series [1]: Oral bioavailability in rat. The series is classed as ADME, organism-based. The note with it: in vivo.
Series [2] addresses ALK tyrosine kinase receptor (Homo sapiens, UniProt Q9UM73). In words: Inhibition of ALK.

Chain of Insulin receptor (P06213 28-758 limits assumed): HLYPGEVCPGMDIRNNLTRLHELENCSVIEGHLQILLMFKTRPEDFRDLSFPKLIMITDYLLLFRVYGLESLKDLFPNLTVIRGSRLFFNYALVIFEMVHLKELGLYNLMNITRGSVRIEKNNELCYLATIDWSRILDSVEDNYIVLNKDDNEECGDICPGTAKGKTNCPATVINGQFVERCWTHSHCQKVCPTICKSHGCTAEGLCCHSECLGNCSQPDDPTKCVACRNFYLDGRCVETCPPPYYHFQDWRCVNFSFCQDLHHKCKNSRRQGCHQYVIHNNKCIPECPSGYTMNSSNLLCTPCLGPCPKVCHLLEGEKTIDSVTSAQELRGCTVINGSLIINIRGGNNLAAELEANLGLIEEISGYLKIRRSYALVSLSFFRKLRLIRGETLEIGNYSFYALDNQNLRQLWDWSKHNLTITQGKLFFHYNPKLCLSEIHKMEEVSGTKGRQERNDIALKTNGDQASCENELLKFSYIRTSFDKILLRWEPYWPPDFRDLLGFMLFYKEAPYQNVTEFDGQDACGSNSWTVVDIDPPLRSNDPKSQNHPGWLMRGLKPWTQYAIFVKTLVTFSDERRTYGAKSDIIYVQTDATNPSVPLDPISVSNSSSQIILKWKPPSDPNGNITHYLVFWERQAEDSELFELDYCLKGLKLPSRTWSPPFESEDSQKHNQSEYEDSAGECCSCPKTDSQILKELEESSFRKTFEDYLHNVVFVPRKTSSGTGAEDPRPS
Chain of Insulin receptor (P06213 763-1382 limits assumed): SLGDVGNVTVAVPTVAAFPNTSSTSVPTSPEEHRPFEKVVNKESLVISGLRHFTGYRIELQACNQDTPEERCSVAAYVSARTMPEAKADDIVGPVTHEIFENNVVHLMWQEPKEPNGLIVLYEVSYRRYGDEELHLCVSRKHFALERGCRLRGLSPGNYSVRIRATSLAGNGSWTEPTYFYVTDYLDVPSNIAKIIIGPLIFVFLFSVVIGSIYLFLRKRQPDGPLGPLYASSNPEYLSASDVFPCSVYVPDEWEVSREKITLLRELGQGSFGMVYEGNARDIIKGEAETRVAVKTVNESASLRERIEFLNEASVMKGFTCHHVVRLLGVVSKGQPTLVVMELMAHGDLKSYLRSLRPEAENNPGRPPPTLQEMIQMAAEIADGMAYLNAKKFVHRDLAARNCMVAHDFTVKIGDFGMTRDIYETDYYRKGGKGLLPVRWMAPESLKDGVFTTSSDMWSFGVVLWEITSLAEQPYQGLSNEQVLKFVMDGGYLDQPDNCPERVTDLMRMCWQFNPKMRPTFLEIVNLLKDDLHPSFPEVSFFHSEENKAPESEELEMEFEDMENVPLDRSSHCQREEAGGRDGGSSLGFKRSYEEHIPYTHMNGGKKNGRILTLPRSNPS
Chain of ALK tyrosine kinase receptor (Q9UM73 whole entry): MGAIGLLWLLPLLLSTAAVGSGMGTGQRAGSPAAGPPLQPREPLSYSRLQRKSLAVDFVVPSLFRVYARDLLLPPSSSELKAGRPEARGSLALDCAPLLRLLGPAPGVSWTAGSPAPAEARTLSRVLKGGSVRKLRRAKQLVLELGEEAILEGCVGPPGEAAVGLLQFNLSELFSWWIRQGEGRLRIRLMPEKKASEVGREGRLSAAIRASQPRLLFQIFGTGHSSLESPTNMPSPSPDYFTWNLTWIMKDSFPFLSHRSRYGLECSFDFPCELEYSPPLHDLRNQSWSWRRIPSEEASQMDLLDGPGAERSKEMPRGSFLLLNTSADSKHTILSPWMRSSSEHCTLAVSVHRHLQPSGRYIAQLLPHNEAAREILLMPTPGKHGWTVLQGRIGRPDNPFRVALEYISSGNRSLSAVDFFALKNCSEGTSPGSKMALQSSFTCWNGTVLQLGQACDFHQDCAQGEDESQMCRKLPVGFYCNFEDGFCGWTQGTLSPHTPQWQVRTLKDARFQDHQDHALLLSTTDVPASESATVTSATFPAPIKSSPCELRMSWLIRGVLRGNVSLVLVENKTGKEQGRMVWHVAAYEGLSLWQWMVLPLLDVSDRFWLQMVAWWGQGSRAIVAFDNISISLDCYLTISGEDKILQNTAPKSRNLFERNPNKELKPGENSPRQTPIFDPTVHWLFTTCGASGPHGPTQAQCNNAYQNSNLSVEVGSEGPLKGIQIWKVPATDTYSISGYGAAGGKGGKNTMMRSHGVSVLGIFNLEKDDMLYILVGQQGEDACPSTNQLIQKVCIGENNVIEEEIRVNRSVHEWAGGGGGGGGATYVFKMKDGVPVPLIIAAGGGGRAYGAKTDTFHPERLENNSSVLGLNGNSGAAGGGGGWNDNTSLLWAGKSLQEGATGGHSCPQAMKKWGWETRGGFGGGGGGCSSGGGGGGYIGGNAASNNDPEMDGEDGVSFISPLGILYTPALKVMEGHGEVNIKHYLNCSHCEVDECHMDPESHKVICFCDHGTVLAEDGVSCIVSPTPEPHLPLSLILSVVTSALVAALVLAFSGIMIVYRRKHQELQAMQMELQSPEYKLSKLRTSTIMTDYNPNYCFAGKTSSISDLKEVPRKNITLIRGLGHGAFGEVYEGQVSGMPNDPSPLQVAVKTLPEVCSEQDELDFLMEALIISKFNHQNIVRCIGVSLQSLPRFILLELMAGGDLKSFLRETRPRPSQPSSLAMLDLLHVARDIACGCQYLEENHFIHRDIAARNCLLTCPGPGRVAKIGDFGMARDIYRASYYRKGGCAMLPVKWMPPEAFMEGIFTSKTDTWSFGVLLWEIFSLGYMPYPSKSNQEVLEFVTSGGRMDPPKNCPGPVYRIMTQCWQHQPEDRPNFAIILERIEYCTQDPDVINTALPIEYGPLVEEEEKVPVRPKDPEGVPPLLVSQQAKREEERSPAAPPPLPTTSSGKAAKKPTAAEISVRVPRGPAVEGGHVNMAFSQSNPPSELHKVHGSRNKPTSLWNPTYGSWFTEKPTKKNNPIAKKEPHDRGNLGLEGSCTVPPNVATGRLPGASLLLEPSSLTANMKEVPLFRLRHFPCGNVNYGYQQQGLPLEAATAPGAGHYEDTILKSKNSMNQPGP

The IC50 is the midpoint of a concentration-inhibition curve. On Insulin receptor, `CCN1C(=O)CCCc2cc(Nc3ncc(Cl)c(Nc4ccccc4S(=O)(=O)C(C)C)n3)c(OC)cc21` displayed a concentration for half-maximal inhibition (IC50) of 12 nM.

The compound `CCN1C(=O)CCCc2c1ccc(Nc1ncc(Cl)c(Nc3ccccc3C(=O)NC)n1)c2OC` gave an IC50 on Insulin receptor of 215 nM. Against the preceding compound, the IC50 is about 18-fold higher.

`CN1C(=O)CCCc2cc(Nc3ncc(Cl)c(N[C@@H]4CCCC[C@H]4C(N)=O)n3)ccc21` (racemic) registered an IC50 on Insulin receptor of 2010 nM.

Consider `CCN1C(=O)CCCc2c1ccc(Nc1ncc(Cl)c(Nc3ccccc3S(=O)(=O)N(C)C)n1)c2OC`, for which the IC50 against Insulin receptor was found to be 71 nM.

`CCN1C(=O)CCCc2cc(Nc3ncc(Cl)c(Nc4ccccc4S(=O)(=O)N(C)C)n3)c(OC)cc21` displayed an IC50 on Insulin receptor of 37 nM.

One may read the bioavailability as the share of a dose that reaches the circulation, judged against a reference dose that is usually intravenous. Higher therefore signals much systemic uptake. Turning to `CNC(=O)c1ccccc1Nc1nc(Nc2ccc3c(c2)CCCC(=O)N3C)ncc1Cl`, in series [1], the bioavailability turned out to be 9%.

Consider `CCN1C(=O)CCCc2cc(Nc3ncc(Cl)c(Nc4ccccc4C(=O)NC)n3)c(OC)cc21`, for which the concentration for half-maximal inhibition (IC50) against Insulin receptor turned out to be 34 nM.

`CNC(=O)c1cccc(Nc2nc(Nc3ccc4c(c3)CCCC(=O)N4C)ncc2Cl)c1`: the values for the IC50 (on Insulin receptor; in series [2]) were 247 nM and 568 nM, respectively.

On Insulin receptor, `CN1C(=O)CCCc2cc(Nc3ncc(Cl)c(N[C@H]4[C@@H](C(N)=O)[C@@H]5C=C[C@H]4C5)n3)ccc21` (racemic) showed an IC50 of 91 nM. This compound returned a bioavailability in series [1] of 13%.

On Insulin receptor, `CN1C(=O)CCCc2cc(Nc3ncc(Cl)c(N[C@@H]4CCCC[C@@H]4C(N)=O)n3)ccc21` (racemic) displayed an IC50 of 319 nM. That is a sub-micromolar value.

In turn, `CNS(=O)(=O)c1ccccc1Nc1nc(Nc2ccc3c(c2)CCCC(=O)N3C)ncc1Cl` gave an IC50 against Insulin receptor of 10 nM. The compound also yielded a bioavailability in series [1] of 11%.

As to `CCN1C(=O)CCCc2c1ccc(Nc1ncc(Cl)c(Nc3ccccc3S(=O)(=O)C(C)C)n1)c2OC`, at Insulin receptor, 32 nM corresponded to half-maximal inhibition (IC50). This lies in the double-digit nanomolar range.

On to `CCN1C(=O)CCCc2cc(Nc3ncc(Cl)c(N[C@H]4[C@@H](C(N)=O)[C@@H]5C=C[C@H]4C5)n3)c(OC)cc21`, for which the IC50 at Insulin receptor amounted to 89 nM.

The record behind these values is ChEMBL document CHEMBL2040771, “Discovery of a potent inhibitor of anaplastic lymphoma kinase with in vivo antitumor activity” (ACS Med Chem Lett, 2010).
